Assay results taken from ChEMBL document CHEMBL4715742, “Design, synthesis and cytotoxic activities of novel 2,5-diketopiperazine derivatives” (Eur J Med Chem, 2016).

Legend:
U-937 [1] = experiment: Cytotoxicity against human U-937 cells assessed as reduction in cell viability measured after 72 hrs by CCK8 assay; type: functional, cell-based
K562 = experiment: Cytotoxicity against human K562 cells assessed as reduction in cell viability measured after 72 hrs by CCK8 assay; type: functional, cell-based
HL-60 = experiment: Cytotoxicity against human HL-60 cells assessed as reduction in cell viability measured after 72 hrs by CCK8 assay; type: functional, cell-based
A549 = experiment: Cytotoxicity against human A549 cells assessed as reduction in cell viability measured after 72 hrs by CCK8 assay; type: functional, cell-based
MCF7 = experiment: Cytotoxicity against human MCF7 cells assessed as reduction in cell viability measured after 72 hrs by CCK8 assay; type: functional, cell-based
HeLa = experiment: Cytotoxicity against human HeLa cells assessed as reduction in cell viability measured after 72 hrs by CCK8 assay; type: functional, cell-based
DU-145 = experiment: Cytotoxicity against human DU-145 cells assessed as reduction in cell viability measured after 72 hrs by CCK8 assay; type: functional, cell-based
HT-29 = experiment: Cytotoxicity against human HT-29 cells assessed as reduction in cell viability measured after 72 hrs by CCK8 assay; type: functional, cell-based
U-937 [2] = experiment: Induction of apoptosis in human U-937 cells assessed as viable cells at 0.015 uM measured after 24 hrs by annexinV/FITC-propidium iodide staining based flow cytometry (reference value: 95 to 95.1 %); type: functional; conditions: read-out: Activity
U-937 [3] = experiment: Induction of apoptosis in human U-937 cells assessed as early apoptotic cells at 0.015 uM measured after 24 hrs by annexinV/FITC-propidium iodide staining based flow cytometry (reference value: 1.28 to 1.68 %); type: functional
U-937 [4] = experiment: Induction of apoptosis in human U-937 cells assessed as late apoptotic cells at 0.015 uM measured after 24 hrs by annexinV/FITC-propidium iodide staining based flow cytometry (reference value: 2.18 to 2.22 %); type: functional
U-937 [5] = experiment: Induction of apoptosis in human U-937 cells assessed as necrotic cells at 0.015 uM measured after 24 hrs by annexinV/FITC-propidium iodide staining based flow cytometry (reference value: 1.12 to 1.48 %); type: functional
U-937 [6] = experiment: Induction of apoptosis in human U-937 cells assessed as viable cells at 0.015 uM measured after 48 hrs by annexinV/FITC-propidium iodide staining based flow cytometry (reference value: 93.7 to 94.2 %); type: functional; conditions: read-out: Activity
U-937 [7] = experiment: Induction of apoptosis in human U-937 cells assessed as early apoptotic cells at 0.015 uM measured after 48 hrs by annexinV/FITC-propidium iodide staining based flow cytometry (reference value: 1.78 to 1.88 %); type: functional
U-937 [8] = experiment: Induction of apoptosis in human U-937 cells assessed as late apoptotic cells at 0.015 uM measured after 48 hrs by annexinV/FITC-propidium iodide staining based flow cytometry (reference value: 3.27 to 3.41 %); type: functional
U-937 [9] = experiment: Induction of apoptosis in human U-937 cells assessed as necrotic cells at 0.015 uM measured after 48 hrs by annexinV/FITC-propidium iodide staining based flow cytometry (reference value: 0.794 to 0.955 %); type: functional
U-937 [10] = experiment: Induction of apoptosis in human U-937 cells assessed as apoptotic ratio at 0.015 uM measured after 24 hrs by annexinV/FITC-propidium iodide staining based flow cytometry (reference value: 3.7 +/- 0.3 %); type: functional
U-937 [11] = experiment: Induction of apoptosis in human U-937 cells assessed as apoptotic ratio at 0.015 uM measured after 48 hrs by annexinV/FITC-propidium iodide staining based flow cytometry (reference value: 5.2 +/- 0.2 %); type: functional
[12] = Homo sapiens, U-937, 72 h, read-out: IC50
[13] = Homo sapiens, K562, 72 h, read-out: IC50
[14] = Homo sapiens, A549, 72 h, read-out: IC50
[15] = Homo sapiens, MCF7, 72 h, read-out: IC50
[16] = Homo sapiens, HeLa, 72 h, read-out: IC50
[17] = Homo sapiens, DU-145, 72 h, read-out: IC50
[18] = Homo sapiens, HT-29, 72 h, read-out: IC50
[19] = Homo sapiens, HL-60, 72 h, read-out: IC50

Compound | IC50 (U-937 [1]; u-937) | IC50 (K562; k562) | IC50 (HL-60; hl-60) | IC50 (A549; a549) | IC50 (MCF7; mcf7) | IC50 (HeLa; hela) | IC50 (DU-145; du-145) | IC50 (HT-29; ht-29) | IC50 (U-937 [1]; [12]) | IC50 (K562; [13]) | IC50 (HL-60; [19]) | also measured
C=CCn1c(=O)/c(=C/CCCCCCCCCCCCCCC)[nH]c(=O)/c1=C/c1ccccc1OC | Not Active | Not Active | Not Active | Not Active | Not Active | Not Active | Not Active | Not Active |  |  |  | 
C=CCn1c(=O)/c(=C/CC)[nH]c(=O)/c1=C/c1ccc(OC)cc1 |  |  | Not Active |  |  |  |  |  | 1.48 µM | 2.1 µM |  | IC50 (A549; [14]): 6.1 µM; IC50 (MCF7; [15]): 4.3 µM; IC50 (HeLa; [16]): 4.6 µM; IC50 (DU-145; [17]): 8.9 µM; IC50 (HT-29; [18]): 4.2 µM
C=CCn1c(=O)/c(=C/CC)[nH]c(=O)/c1=C/c1cccc(OC)c1 | Not Active | Not Active | Not Active | Not Active | Not Active | Not Active | Not Active | Not Active |  |  |  | 
C=CCn1c(=O)/c(=C/CCCCCC)[nH]c(=O)/c1=C/c1cccc(OC)c1 | Not Active | Not Active | Not Active | Not Active | Not Active | Not Active | Not Active | Not Active |  |  |  | 
C=CCn1c(=O)/c(=C/CCCCCCCCC)[nH]c(=O)/c1=C/c1ccc(OC)cc1 |  |  |  | Not Active | Not Active | Not Active | Not Active | Not Active | 10.3 µM | 11.7 µM | 5.3 µM | 
C=CCn1c(=O)/c(=C/CCCCCCC)[nH]c(=O)/c1=C/c1cccc(OC)c1 | Not Active | Not Active | Not Active | Not Active | Not Active | Not Active | Not Active | Not Active |  |  |  | 
C=CCn1c(=O)/c(=C/CCCC)[nH]c(=O)/c1=C/c1cccc(OC)c1 | Not Active | Not Active | Not Active | Not Active | Not Active | Not Active | Not Active | Not Active |  |  |  | 
C=CCn1c(=O)/c(=C/CCCCCCCCCCCCCCC)[nH]c(=O)/c1=C/c1cccc(OC)c1 | Not Active | Not Active | Not Active | Not Active | Not Active | Not Active | Not Active | Not Active |  |  |  | 
C=CCn1c(=O)/c(=C/CCCCCCCCCC)[nH]c(=O)/c1=C/c1ccccc1OC | Not Active | Not Active | Not Active | Not Active | Not Active | Not Active | Not Active | Not Active |  |  |  | 
CC(C)(C)c1[nH]cnc1/C=c1\[nH]c(=O)/c(=C/c2ccccc2)[nH]c1=O [PLINABULIN] |  |  |  |  |  |  |  |  | 0.0068 µM | 0.0063 µM | 0.0148 µM | IC50 (A549; [14]): 0.0055 µM; IC50 (MCF7; [15]): 0.0126 µM; IC50 (HeLa; [16]): 0.0084 µM; IC50 (DU-145; [17]): 0.014 µM; IC50 (HT-29; [18]): 0.013 µM; viability at 0.015 µM (U-937 [2]): 66.9%; Activity (U-937 [3]): 11.7%; Activity (U-937 [4]): 19.3%; Activity (U-937 [5]): 1.13%; viability at 0.015 µM (U-937 [6]): 58.3%; Activity (U-937 [7]): 6.44%; Activity (U-937 [8]): 31.1%; Activity (U-937 [9]): 1.99%; Activity (U-937 [10]): 31.8%; Activity (U-937 [11]): 38.6%
C=CCn1c(=O)/c(=C/CCCC)[nH]c(=O)/c1=C/c1ccccc1OC |  |  |  |  |  |  |  |  | 0.9 µM | 1.4 µM | 0.5 µM | IC50 (A549; [14]): 4 µM; IC50 (MCF7; [15]): 3.1 µM; IC50 (HeLa; [16]): 2.4 µM; IC50 (DU-145; [17]): 4.3 µM; IC50 (HT-29; [18]): 3.3 µM
C=CCn1c(=O)/c(=C/c2cccc(Cl)c2Cl)[nH]c(=O)/c1=C/c1ccccc1OC |  |  |  |  |  |  |  |  | 0.5 µM | 0.9 µM | 2 µM | IC50 (A549; [14]): 2.3 µM; IC50 (MCF7; [15]): 2.1 µM; IC50 (HeLa; [16]): 1.6 µM; IC50 (DU-145; [17]): 4.2 µM; IC50 (HT-29; [18]): 3.2 µM
C=CCn1c(=O)/c(=C/CCCCCCCCCCC)[nH]c(=O)/c1=C/c1ccccc1OC | Not Active | Not Active | Not Active | Not Active | Not Active | Not Active | Not Active | Not Active |  |  |  | 
C=CCn1c(=O)/c(=C/CCCCCCCCC)[nH]c(=O)/c1=C/c1ccccc1OC |  |  |  | Not Active | Not Active | Not Active | Not Active | Not Active | 18.8 µM | 10.4 µM | 3.4 µM | 
C=CCn1c(=O)/c(=C/CCC)[nH]c(=O)/c1=C/c1ccccc1OC |  |  |  | Not Active |  |  | Not Active |  | 6.4 µM | 8.6 µM | 20.4 µM | IC50 (MCF7; [15]): 11.1 µM; IC50 (HeLa; [16]): 21.4 µM; IC50 (HT-29; [18]): 28.9 µM
C=CCn1c(=O)/c(=C/CCCCCCCC)[nH]c(=O)/c1=C/c1cccc(OC)c1 | Not Active | Not Active | Not Active | Not Active | Not Active | Not Active | Not Active | Not Active |  |  |  | 
C=CCn1c(=O)/c(=C/CCCCCCCCCCC)[nH]c(=O)/c1=C/c1cccc(OC)c1 | Not Active | Not Active | Not Active | Not Active | Not Active | Not Active | Not Active | Not Active |  |  |  | 
C=CCn1c(=O)/c(=C/CCCCC)[nH]c(=O)/c1=C/c1cccc(OC)c1 | Not Active | Not Active | Not Active | Not Active | Not Active | Not Active | Not Active | Not Active |  |  |  | 
C=CCn1c(=O)/c(=C/CCCCCCCCCC)[nH]c(=O)/c1=C/c1cccc(OC)c1 | Not Active | Not Active | Not Active | Not Active | Not Active | Not Active | Not Active | Not Active |  |  |  | 
C=CCn1c(=O)/c(=C/CCC)[nH]c(=O)/c1=C/c1ccc(OC)cc1 |  |  |  |  |  |  |  |  | 2.2 µM | 2.9 µM | 6.2 µM | IC50 (A549; [14]): 12.3 µM; IC50 (MCF7; [15]): 9.3 µM; IC50 (HeLa; [16]): 7.1 µM; IC50 (DU-145; [17]): 13.1 µM; IC50 (HT-29; [18]): 8.3 µM
C=CCn1c(=O)/c(=C/CCCCCCCCCCCCCCC)[nH]c(=O)/c1=C/c1ccc(OC)cc1 | Not Active | Not Active | Not Active | Not Active | Not Active | Not Active | Not Active | Not Active |  |  |  | 
C=CCn1c(=O)/c(=C/CCCCCCCCCC)[nH]c(=O)/c1=C/c1ccc(OC)cc1 | Not Active | Not Active | Not Active | Not Active | Not Active | Not Active | Not Active | Not Active |  |  |  | 
